Read-outs that look alike come from different tables or passages of the source.
What was measured:
[1] = test system: MOLM-14 cells (parental); assay: Growth inhibition of AML cell line; assay type: cell-based, human
Experimental: (§1) MV-4-11 cells expressing NRAS^G12D were prepared by transduction with a lentiviral vector encoding the NRAS^G12D mutation. Assays using a panel of parental Ba/F3 into which an additional copy of either WT or a mutant form of FLT3 was introduced were performed at Kyinno Biotechnology Co., Ltd. All cell lines were short tandem repeat authenticated at ATCC or at DSMZ when originally obtained, and no further authentication was done after receipt of the cells in the laboratory.
(§2) Assays using Ba/F3 cells expressing WT and mutant forms of FLT3 were performed by Kyinno Biotechnology. The cells were cultured in the medium recommended by the source for each cell line. Growth inhibition assays were performed using either Cell Titer 96 Aqueous One Solution Cell Proliferation assay (Promega, # G3581) or CCK8 (Dojindo, # CK-04). […] IC50 values were determined from growth inhibition curves fitted using GraphPad Prism and a nonlinear regression model with sigmoidal dose response. Unless otherwise indicated, data are presented as mean ± SEM.

[2] = test system: TUS/R line 3 (MOLM-14); assay: Growth inhibition of TUS-resistant subline; assay type: cell-based, human; settings: for GI50: mean ± SEM (Supplementary Table 6)
[3] = test system: TUS/R line 4 (MOLM-14); assay: Growth inhibition of TUS-resistant subline; assay type: cell-based, human; settings: for GI50: mean ± SEM (Supplementary Table 6)
[4] = test system: Ba/F3 cells FLT3 D835Y; assay: Growth inhibition of Ba/F3 cells; assay type: cell-based, murine; settings: Mus musculus, BaF3; Ba/F3 FLT3 D835Y; mean ± SD; read-out: GI50
Experimental: as §1, §2

[5] = test system: Ba/F3 cells FLT3 ITD/D835Y; assay: Growth inhibition of Ba/F3 cells; assay type: cell-based, murine; settings: Mus musculus, BaF3; Ba/F3 FLT3 ITD/D835Y; mean ± SD; read-out: GI50
Experimental: as §1, §2

[6] = test system: Ba/F3 cells FLT3 ITD/F691L; assay: Growth inhibition of Ba/F3 cells; assay type: cell-based, murine; settings: Mus musculus, BaF3; Ba/F3 FLT3 ITD/F691L; mean ± SD; read-out: GI50
Experimental: as §1, §2

[7] = test system: Ba/F3 cells FLT3 ITD; assay: Growth inhibition of Ba/F3 cells; assay type: cell-based, murine; settings: Mus musculus, BaF3; Ba/F3 FLT3 ITD; mean ± SD; read-out: GI50
Experimental: as §1, §2

[8] = test system: Ba/F3 cells FLT3 WT; assay: Growth inhibition of Ba/F3 cells; assay type: cell-based, murine; settings: Mus musculus, BaF3; Ba/F3 FLT3 WT; mean ± SD; read-out: GI50
Experimental: as §1, §2

[9] = test system: MOLM-13 cells; assay: Growth inhibition of AML cell line; assay type: cell-based; settings: Homo sapiens, mean ± SD
Experimental: as §1, §2

[10] = test system: MV-4-11 cells; assay: Growth inhibition of AML cell line; assay type: cell-based, human
Experimental: as §1, §2

[11] = test system: MV-4-11 NRAS G12D Clone 15; assay: Growth inhibition of NRAS G12D clone; assay type: cell-based, human; settings: for GI50: MV-4-11 NRAS G12D, mean ± SEM
Experimental: as §1, §2

[12] = test system: MV-4-11 NRAS G12D Clone 1; assay: Growth inhibition of NRAS G12D clone; assay type: cell-based, human; settings: for GI50: MV-4-11 NRAS G12D, mean ± SEM
Experimental: as §1, §2

[13] = test system: MV-4-11 NRAS G12D Clone 4; assay: Growth inhibition of NRAS G12D clone; assay type: cell-based, human
Experimental: as §1, §2

[14] = test system: p-JAK1, p-JAK2, p-STAT3, p-STAT5 in MOLM-14 cells cocultured with HS-5 cells; assay: HS-5 stromal coculture Western blot; assay type: cell-based, human; settings: concentrations <1 μmol/L; MOLM-14 cocultured with HS-5
Experimental: Cells were treated as described in respective Results sections and then lysed with RIPA buffer. Western blot analyses were performed with antibodies capable of detecting both total and phosphorylated forms of each kinase purchased from commercial sources. Information on the antibodies used is provided in the Supplementary Materials section.
HS-5 cells were obtained from ATCC. The HS-5 stromal cells (5 × 10^5 cells/well) were seeded into six-well plates, and 24 hours later, MOLM-14 cells (1 × 10^6 cells/well) were seeded into the same plate and then cultured for 48 hours. Cultures were then exposed to test drugs for 2 hours, harvested, and lysates were prepared for Western blotting. For stimulation studies, MOLM-14 or KG-1a cells were seeded at 5.0 to 6.0 × 10^6 cells/well into six-well plates in 2 mL medium. Cells were stimulated with 500 μg/mL fibrinogen (Sigma-Aldrich, Catalog # F3879) for 1 hour at 37°C. Alternatively, they were treated with 10 μg/mL IgG (Invitrogen, Catalog # 31154) for 10 minutes on ice followed by IgG cross-linking with 1 μg/mL anti–human IgG antibody for 10 minutes on ice. After these incubations, the media were removed and the cells were washed with cold PBS, lysed, and analyzed by Western blotting.

[15] = molecular target: FLT3 D835Y (Homo sapiens, UniProt P36888, D835Y); assay: Biochemical enzyme activity screening assay; settings: kinase FLT3 D835Y; mean ± SD
[16] = test system: TUS/R line 1 (MOLM-14); assay: Growth inhibition of TUS-resistant subline; assay type: cell-based; settings: Homo sapiens, MOLM-14, read-out: IC50 (nmol/L), Mean ± SEM, TUS/R line 1
[17] = test system: TUS/R line 2 (MOLM-14); assay: Growth inhibition of TUS-resistant subline; assay type: cell-based; settings: Homo sapiens, MOLM-14, read-out: IC50 (nmol/L), Mean ± SEM, TUS/R line 2
[18] = test system: TUS/R MOLM-14 cells; assay: Growth inhibition of TUS-resistant sublines versus parental; assay type: cell-based, human
[19] = Homo sapiens, MOLM-14, mean ± SEM (Supplementary Table 6), read-out: GI50 (nM) Parental MOLM-14 (converted)
[20] = Homo sapiens, MOLM-14, read-out: GI50 (nM) TUS/R line 3
[21] = Homo sapiens, MOLM-14, read-out: GI50 (nM) TUS/R line 4
[22] = Homo sapiens, MOLM-14, mean ± SD (Supplementary Table 4), read-out: GI50
[23] = Homo sapiens, MV4-11, MV-4-11, mean ± SD (Supplementary Table 4), read-out: GI50
[24] = Homo sapiens, MV4-11, mean ± SEM (Supplementary Table 7), read-out: GI50 (nM) Parental (MV-4-11)
[25] = Homo sapiens, MV4-11, MV-4-11 NRAS G12D, high expression, mean ± SEM, read-out: GI50 (nM) Clone 4
[26] = 13 to […]-fold increase in NRAS G12D expression

Compound | GI50 [2, 20] | GI50 [3, 21] | GI50 [9] | GI50 [10, 23] | GI50 ([11]; Homo sapiens, MV4-11) | GI50 ([12]; Homo sapiens, MV4-11) | GI50 [1, 19] | GI50 [1, 22] | GI50 [10, 24] | GI50 [13, 25] | fold hypersensitive, TUS/R versus parental MOLM-14 [18] | other results
Cc1cnc(-c2ccc(-c3ccc(NC(=O)Nc4c(F)cc(F)cc4F)cc3F)c3c2C(=O)NC3)[nH]1 [Luxeptinib] | 0.1 ± 0.01 nM | 0.1 ± 0.01 nM |  |  |  |  | 0.2 ± 0.01 nM |  |  |  |  | 
CCc1nc(C(N)=O)c(Nc2ccc(N3CCC(N4CCN(C)CC4)CC3)c(OC)c2)nc1NC1CCOCC1 [Gilteritinib, gilteritinib] | 118 nM | 128 nM | 8.4 ± 2.9 nM | 2 ± 0.2 nM | 5.6 ± 1.1 nM | 3.3 ± 0.7 nM | 8.6 nM | 6.1 ± 2.8 nM | 2.4 ± 0.7 nM | 51 ± 12.2 nM |  | GI50 [4]: 2.3 ± 0.7 nM; GI50 [5]: 4.4 ± 0.6 nM; GI50 [6]: 33 ± 6.2 nM; GI50 [7]: 1.2 ± 0.2 nM; GI50 [8]: 7 ± 1.5 nM; inhibition of p-JAK1, p-JAK2, p-STAT3, or p-STAT5 [14]: Neither TUS nor gilteritinib inhibited; GI50 [15]: 0.5 ± 0.1 nM
CC(C)(C)c1cc(NC(=O)Nc2ccc(-c3cn4c(n3)sc3cc(OCCN5CCOCC5)ccc34)cc2)no1 [Quizartinib, quizartinib] | 0.2 ± 0.1 nM | 0.5 ± 0.1 nM | 0.9 ± 0.5 nM | 0.2 ± 0.1 nM | 1.3 ± 0.4 nM | 1.1 ± 0.2 nM | 0.5 ± 0.02 nM | 0.6 ± 0.2 nM | 0.5 ± 0.1 nM |  |  | GI50 ([13]; Homo sapiens, MV4-11, read-out: GI50 (nM) Clone 4): 1.9 ± 0.5 nM
CC1(C)CCC(CN2CCN(c3ccc(C(=O)NS(=O)(=O)c4ccc(NCC5CCOCC5)c([N+](=O)[O-])c4)c(Oc4cnc5[nH]ccc5c4)c3)CC2)=C(c2ccc(Cl)cc2)C1 [Venetoclax, venetoclax] |  |  |  |  | 4.9 ± 1.3 nM | 5.5 ± 1.4 nM |  |  | 10.5 ± 1.7 nM | 2260 ± 156 nM |  | IC50 ([1]; Homo sapiens, MOLM-14, growth inhibition, three independent experiments, read-out: IC50 (nmol/L), Mean ± SEM, MOLM-14 parental): 3020 ± 464 nmol/L; IC50 [16]: 1.3 ± 0.1 nmol/L; IC50 [17]: 1.5 ± 0.05 nmol/L; IC50 ([2]; Homo sapiens, MOLM-14, read-out: IC50 (nmol/L), Mean ± SEM, TUS/R line 3): 1.1 ± 0.2 nmol/L; IC50 ([3]; Homo sapiens, MOLM-14, read-out: IC50 (nmol/L), Mean ± SEM, TUS/R line 4): 5 ± 0.8 nmol/L; change in sensitivity, clone 15 [11, 26]: did not alter sensitivity; change in sensitivity, clone 1 [12, 26]: did not alter sensitivity; fold resistant / loss of sensitivity, clone 4 versus parental MV-4-11 ([13]; high NRAS G12D expression): 214 fold
Cc1c2c(nn1C)CSCc1cc(n(C)n1)CSc1cc(c3ccccc3c1)OCCCc1c(C(=O)O)n(C)c3c-2c(Cl)ccc13 [AZD5991] | 22.8 ± 2.7 nM | 18.2 ± 1.6 nM |  |  | 7.2 ± 0.4 nM | 10.1 ± 3.2 nM | 168 ± 33.7 nM |  | 32.5 ± 5.4 nM | 44.3 ± 8.3 nM | ~8 fold | 
CC(=O)Nc1cccc(-n2c(=O)n(C3CC3)c(=O)c3c(Nc4ccc(I)cc4F)n(C)c(=O)c(C)c32)c1 [Trametinib, trametinib] | 67 ± 12.8 nM | 101.5 ± 0.4 nM |  |  | 2.3 ± 0.8 nM | 1.6 ± 0.4 nM | 153 ± 14.5 nM |  | 6.7 ± 1.6 nM | 2.5 ± 0.7 nM | ~1.9 fold | 
CO[C@@H]1[C@H](N(C)C(=O)c2ccccc2)C[C@H]2O[C@]1(C)n1c3ccccc3c3c4c(c5c6ccccc6n2c5c31)C(=O)NC4 [Midostaurin, midostaurin] |  |  | 19 ± 14 nM | 6 ± 1.4 nM |  |  |  | 12 ± 7.1 nM |  |  |  | GI50 [4]: 9 ± 2.7 nM; GI50 [5]: 21 ± 1.1 nM; GI50 [6]: 16 ± 3.5 nM; GI50 [7]: 5.1 ± 0.1 nM
Cc1c(-c2c(-c3ccc(F)o3)sc3ncnc(O[C@H](Cc4ccccc4OCc4ccnn4CC(F)(F)F)C(=O)O)c23)ccc(OCCN2CCN(C)CC2)c1Cl [S63845] |  |  |  |  |  |  |  |  |  |  | ~20 fold | GI50 ([1]; mean ± SEM (Supplementary Table 6), read-out: GI50 (nM) Parental MOLM-14 (converted)): 105 ± 19.8 nM; GI50 ([10]; mean ± SEM (Supplementary Table 7), read-out: GI50 (nM) Parental (MV-4-11)): 4.6 ± 0.4 nM; GI50 ([2]; read-out: GI50 (nM) TUS/R line 3): 5.6 ± 0.7 nM; GI50 ([3]; read-out: GI50 (nM) TUS/R line 4): 4.6 ± 0.3 nM; GI50 [11]: 1.5 ± 0.1 nM; GI50 [12]: 1.1 ± 0.3 nM; GI50 ([13]; MV-4-11 NRAS G12D, high expression, mean ± SEM, read-out: GI50 (nM) Clone 4): 7.3 ± 1.5 nM

From article PMC11725774 (Cancer Research Communications, 2025)
